Experimental data published in patent publication US20090155209A1, “NOVEL MACROCYCLIC INHIBITORS OF HEPATITIS C VIRUS REPLICATION” (priority 2007, published 2009).

Key:
NS3-NS4 [1] = molecular target: T1, NS3-NS4 (Hepatitis C virus genotype 1a, UniProt P27958); test: cell-based; details: EC50, NS3-NS4 activity
NS3-NS4 [2] = molecular target: T1, NS3-NS4; test: NS3-NS4 activity, IC50 (Example 37, Table 8); type: biochemical

T1 sequence (P27958 1027-1657): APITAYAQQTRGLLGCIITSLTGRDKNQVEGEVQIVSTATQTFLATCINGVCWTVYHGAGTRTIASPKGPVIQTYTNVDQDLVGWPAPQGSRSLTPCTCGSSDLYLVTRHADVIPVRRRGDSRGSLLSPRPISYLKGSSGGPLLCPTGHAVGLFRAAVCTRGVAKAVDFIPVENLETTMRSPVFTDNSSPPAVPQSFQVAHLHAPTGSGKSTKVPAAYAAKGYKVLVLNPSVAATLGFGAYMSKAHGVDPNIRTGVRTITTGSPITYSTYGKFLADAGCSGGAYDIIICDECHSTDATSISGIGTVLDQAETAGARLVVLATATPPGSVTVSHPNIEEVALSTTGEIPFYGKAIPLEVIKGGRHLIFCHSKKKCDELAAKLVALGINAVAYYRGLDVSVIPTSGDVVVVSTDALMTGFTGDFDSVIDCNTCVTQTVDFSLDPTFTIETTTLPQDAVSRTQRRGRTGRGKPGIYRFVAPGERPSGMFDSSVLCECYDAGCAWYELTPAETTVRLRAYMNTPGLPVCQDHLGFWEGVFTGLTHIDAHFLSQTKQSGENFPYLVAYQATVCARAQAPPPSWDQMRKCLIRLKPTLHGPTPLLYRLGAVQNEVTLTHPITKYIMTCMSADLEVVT
T1 sequence (P27958 1658-1711): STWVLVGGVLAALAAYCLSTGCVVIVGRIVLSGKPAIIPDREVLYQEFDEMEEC

SMILES	EC50 (NS3-NS4 [1]) [nM]	IC50 (NS3-NS4 [2]) [nM]
CN(C(=O)N[C@H]1CCCCC/C=C\[C@@H]2C[C@@]2(C(=O)NS(=O)(=O)C2(C)CC2)NC(=O)[C@@H]2C[C@@H](OC(=O)N3Cc4cccc(Cl)c4C3)CN2C1=O)C(C)(C)C [Compound 441]	< 100	< 100
CC(C)CC1(S(=O)(=O)NC(=O)[C@@]23C[C@H]2CCCCCCC[C@H](NC(=O)OC(C)(C)C)C(=O)N2C[C@H](OC(=O)N4Cc5cccc(F)c5C4)C[C@H]2C(=O)N3)CC1 [Compound 654]	< 100	< 100
CC(C)CONC(=O)[C@@]12C[C@H]1CCCCCCC[C@H](NC(=O)OC(C)(C)C)C(=O)N1C[C@H](OC(=O)N3Cc4cccc(F)c4C3)C[C@H]1C(=O)N2 [Compound 814]	< 100	< 100
Cc1ccc(S(=O)(=O)NC(=O)[C@@]23C[C@H]2/C=C\CCCCC[C@H](NC(=O)OC(C)(C)C)C(=O)N2C[C@H](OC(=O)N4Cc5cccc(F)c5C4)C[C@H]2C(=O)N3)o1 [Compound 533]	< 100	< 100
CC(C)C1(S(=O)(=O)NC(=O)[C@@]23C[C@H]2CCCCCCC[C@H](NC(=O)OC(C)(C)C)C(=O)N2C[C@H](OC(=O)N4Cc5cccc(F)c5C4)C[C@H]2C(=O)N3)CC1 [Compound 653]	< 100	< 100
O=C1N[C@]2(C(=O)NS(=O)(=O)C3CC3)C[C@H]2/C=C\CCCCC[C@H](Nc2nc(-c3ccc(F)cc3)cs2)C(=O)N2C[C@H](OC(=O)N3Cc4cccc(F)c4C3)C[C@@H]12 [Compound 208]	< 100	< 100
CC(C)(C)OC(=O)N[C@H]1CCCCC/C=C\[C@@H]2C[C@@]2(C(=O)NS(=O)(=O)C2(C)CC2)NC(=O)[C@@H]2C[C@@H](OC(=O)N3Cc4cccc(Cl)c4C3)CN2C1=O [Compound 445]	< 100	< 100
O=C1N[C@]2(C(=O)NS(=O)(=O)C3CC3)C[C@H]2/C=C\CCCCC[C@H](Nc2nc(-c3ccc(F)cc3)cs2)C(=O)N2C[C@H](OC(=O)N3CCc4ccccc4C3)C[C@@H]12 [Compound 232]	< 100	< 100
CC(C)CONC(=O)[C@@]12C[C@H]1/C=C\CCCCC[C@H](NC(=O)OC(C)(C)C)C(=O)N1C[C@H](OC(=O)N3Cc4cccc(F)c4C3)C[C@H]1C(=O)N2 [Compound 719]	< 100	< 100
Cc1ccc(S(=O)(=O)NC(=O)[C@@]23C[C@H]2/C=C\CCCCC[C@H](NC(=O)OC(C)(C)C)C(=O)N2C[C@H](OC(=O)N4Cc5cccc(F)c5C4)C[C@H]2C(=O)N3)c(C)c1 [Compound 355]	< 100	< 100
O=C1N[C@]2(C(=O)NS(=O)(=O)C3CC3)C[C@H]2/C=C\CCCCC[C@H](NC(=O)N2CCCCC2)C(=O)N2C[C@H](OC(=O)N3Cc4cccc(F)c4C3)C[C@@H]12 [Compound 415]	< 100	< 100
O=C(N[C@H]1CCCCC/C=C\[C@@H]2C[C@@]2(C(=O)NS(=O)(=O)C2CC2)NC(=O)[C@@H]2C[C@@H](OC(=O)N3Cc4cccc(F)c4C3)CN2C1=O)c1ccc(Cl)cc1 [Compound 413]	< 100	< 100
O=C(C[C@H]1CCCCC/C=C\[C@@H]2C[C@@]2(C(=O)NS(=O)(=O)C2CC2)NC(=O)[C@@H]2C[C@@H](OC(=O)N3Cc4cccc(F)c4C3)CN2C1=O)Oc1ccccc1 [Compound 419]	100 to 1000	< 100
Cc1cc(C)cc(ONC(=O)[C@@]23C[C@H]2CCCCCCC[C@H](NC(=O)OC(C)(C)C)C(=O)N2C[C@H](OC(=O)N4Cc5cccc(F)c5C4)C[C@H]2C(=O)N3)c1 [Compound 807]	1000 to 10000	< 100
O=C(N[C@H]1CCCCC/C=C\[C@@H]2C[C@@]2(C(=O)NS(=O)(=O)C2CC2)NC(=O)[C@@H]2C[C@@H](OC(=O)N3Cc4cccc(Cl)c4C3)CN2C1=O)O[C@@H]1CCOC1 [Compound 402, (2R,6S,13aS,14aR,16aS,Z)-14a-(cyclopropylsulfonylcarbamoyl)5,16-dioxo-6-(((R)-tetrahydrofuran-3-yloxy)carbonylamino)-1,2,3,5,6,7,8,9,10,11,13a,14,14a,15,16,16a-hexadecahydrocyclopropa[e]pyrrolo[1,2-a][1,4]diazacyclopentadecin-2-yl 4-chloroisoindoline-2-carboxylate]	< 100	< 100
CC(C)COC(=O)N[C@H]1CCCCC/C=C\[C@@H]2C[C@@]2(C(=O)NS(=O)(=O)c2ccc(Cl)cc2)NC(=O)[C@@H]2C[C@@H](OC(=O)N3Cc4cccc(F)c4C3)CN2C1=O [Compound 341]	< 100	< 100
CC(C)(C)OC(=O)N[C@H]1CCCCC/C=C\[C@@H]2C[C@@]2(C(=O)NS(=O)(=O)c2cc(Cl)ccc2Cl)NC(=O)[C@@H]2C[C@@H](OC(=O)N3Cc4cccc(F)c4C3)CN2C1=O [Compound 316]	< 100	< 100
CC(C)(OC(=O)N[C@H]1CCCCC/C=C\[C@@H]2C[C@@]2(C(=O)NS(=O)(=O)C2CC2)NC(=O)[C@@H]2C[C@@H](OC(=O)N3Cc4cccc(F)c4C3)CN2C1=O)C1CC1 [Compound 443]	< 100	< 100
O=C1N[C@]2(C(=O)NS(=O)(=O)C3CC3)C[C@H]2/C=C\CCCCC[C@H](Nc2nc(-c3ccc(F)cn3)cs2)C(=O)N2C[C@H](OC(=O)N3Cc4cccc(F)c4C3)C[C@@H]12 [Compound 225]	< 100	< 100

SMILES	EC50 (NS3-NS4 [1]) [nM]	IC50 (NS3-NS4 [2]) [nM]
CCC1(OC(=O)N[C@H]2CCCCC/C=C\[C@@H]3C[C@@]3(C(=O)NS(=O)(=O)C3CC3)NC(=O)[C@@H]3C[C@@H](OC(=O)N4Cc5cccc(F)c5C4)CN3C2=O)CC1 [Compound 442]	< 100	< 100
CC(C)(C)OC(=O)N[C@H]1CCCCCCC[C@@H]2C[C@@]2(C(=O)NOCC2CC2)NC(=O)[C@@H]2C[C@@H](OC(=O)N3Cc4cccc(F)c4C3)CN2C1=O [Compound 813]	< 100	< 100
Cc1csc(S(=O)(=O)NC(=O)[C@@]23C[C@H]2CCCCCCC[C@H](NC(=O)OC(C)(C)C)C(=O)N2C[C@H](OC(=O)N4Cc5cccc(F)c5C4)C[C@H]2C(=O)N3)c1 [Compound 645]	< 100	< 100
CC(C)(C)OC(=O)N[C@H]1CCCCC/C=C\[C@@H]2C[C@@]2(C(=O)NS(=O)(=O)c2c(F)cccc2F)NC(=O)[C@@H]2C[C@@H](OC(=O)N3CCc4ccccc4C3)CN2C1=O [Compound 363]	1000 to 10000	< 100
CC(C)(C)OC(=O)N[C@H]1CCCCC/C=C\[C@@H]2C[C@@]2(C(=O)NS(=O)(=O)c2ccccc2F)NC(=O)[C@@H]2C[C@@H](OC(=O)N3Cc4cccc(F)c4C3)CN2C1=O [Compound 349]	< 100	< 100
CC(C)CS(=O)(=O)NC(=O)[C@@]12C[C@H]1CCCCCCC[C@H](NC(=O)OC(C)(C)C)C(=O)N1C[C@H](OC(=O)N3Cc4cccc(F)c4C3)C[C@H]1C(=O)N2 [Compound 656]	< 100	< 100
CN(C(=O)N[C@H]1CCCCC/C=C\[C@@H]2C[C@@]2(C(=O)NS(=O)(=O)c2c(F)cccc2F)NC(=O)[C@@H]2C[C@@H](OC(=O)N3Cc4cccc(F)c4C3)CN2C1=O)C(C)(C)C [Compound 362]	100 to 1000	< 100
CC(C)(C)OC(=O)N[C@H]1CCCCC/C=C\[C@@H]2C[C@@]2(C(=O)NS(=O)(=O)c2cc(Cl)sc2Cl)NC(=O)[C@@H]2C[C@@H](OC(=O)N3CCc4ccccc4C3)CN2C1=O [Compound 357]	100 to 1000	100 to 1000
Cc1ccccc1S(=O)(=O)NC(=O)[C@@]12C[C@H]1/C=C\CCCCC[C@H](NC(=O)N(C)C(C)(C)C)C(=O)N1C[C@H](OC(=O)N3Cc4cccc(F)c4C3)C[C@H]1C(=O)N2 [Compound 358]	< 100	< 100
CN(Cc1ccccc1)C(=O)N[C@H]1CCCCC/C=C\[C@@H]2C[C@@]2(C(=O)NS(=O)(=O)C2CC2)NC(=O)[C@@H]2C[C@@H](OC(=O)N3Cc4cccc(F)c4C3)CN2C1=O [Compound 421]	< 100	< 100
Cc1cc(F)ccc1S(=O)(=O)NC(=O)[C@@]12C[C@H]1/C=C\CCCCC[C@H](NC(=O)OC(C)(C)C)C(=O)N1C[C@H](OC(=O)N3Cc4cccc(F)c4C3)C[C@H]1C(=O)N2 [Compound 346]	< 100	< 100
O=C1N[C@]2(C(=O)NS(=O)(=O)C3CC3)C[C@H]2/C=C\CCCCC[C@H](Nc2nc(-c3cccnc3)cs2)C(=O)N2C[C@H](OC(=O)N3Cc4cccc(F)c4C3)C[C@@H]12 [Compound 214]	< 100	< 100
O=C(N[C@H]1CCCCC/C=C\[C@@H]2C[C@@]2(C(=O)NS(=O)(=O)C2CC2)NC(=O)[C@@H]2C[C@@H](OC(=O)N3Cc4cccc(F)c4C3)CN2C1=O)OC1CCOCC1 [Compound 401, (2R,6S,13aS,14aR,16aS,Z)-14a-(cyclopropylsulfonylcarbamoyl)-5,16-dioxo-6-((tetrahydro-2H-pyran-4-yloxy)carbonylamino)-1,2,3,5,6,7,8,9,10,11,13a,14,14a,15,16,16a-hexadecahydrocyclopropa[e]pyrrolo[1,2-a][1,4]diazacyclopentadecin-2-yl 4-fluoroisoindoline-2-carboxylate]	< 100	< 100
Cc1cccc(ONC(=O)[C@@]23C[C@H]2CCCCCCC[C@H](NC(=O)OC(C)(C)C)C(=O)N2C[C@H](OC(=O)N4Cc5cccc(F)c5C4)C[C@H]2C(=O)N3)c1 [Compound 805]	1000 to 10000	< 100
CC(C)(C)OC(=O)N[C@H]1CCCCC/C=C\[C@@H]2C[C@@]2(C(=O)NS(=O)(=O)c2ccc(Cl)cc2)NC(=O)[C@@H]2C[C@@H](OC(=O)N3Cc4cccc(F)c4C3)CN2C1=O [Compound 333]	< 100	< 100
O=C1N[C@]2(C(=O)NS(=O)(=O)C3CC3)C[C@H]2/C=C\CCCCC[C@H](NC(=O)N2Cc3ccccc3C2)C(=O)N2C[C@H](OC(=O)N3Cc4cccc(F)c4C3)C[C@@H]12 [Compound 422]	100 to 1000	< 100
CC(C)(C)OC(=O)N[C@H]1CCCCC/C=C\[C@@H]2C[C@@]2(C(=O)NS(=O)(=O)c2ccc(F)c(F)c2)NC(=O)[C@@H]2C[C@@H](OC(=O)N3Cc4cccc(F)c4C3)CN2C1=O [Compound 315]	< 100	< 100
Cc1ccc(ONC(=O)[C@@]23C[C@H]2CCCCCCC[C@H](NC(=O)OC(C)(C)C)C(=O)N2C[C@H](OC(=O)N4Cc5cccc(F)c5C4)C[C@H]2C(=O)N3)cc1C [Compound 802]	1000 to 10000	< 100
